The values below come from PMC7529758, “Over-activation of a nonessential bacterial protease DegP as an antibiotic strategy” (Communications Biology, 2020).

Sequences and labels used below:
B3: DegP^S210A (enzyme, E. coli, UniProt P0C0V0 27-474, looked up)
chain: AETSSATTAQQMPSLAPMLEKVMPSVVSINVEGSTTVNTPRMPRNFQQFFGDDSPFCQEGSPFQSSPFCQGGQGGNGGGQQQKFMALGSGVIIDADKGYVVTNNHVVDNATVIKVQLSDGRKFDAKMVGKDPRSDIALIQIQNPKNLTAIKMADSDALRVGDYTVAIGNPFGLGETVTSGIVSALGRSGLNAENYENFIQTDAAINRGNAGGALVNLNGELIGINTAILAPDGGNIGIGFAIPSNMVKNLTSQMVEYGQVKRGELGIMGTELNSELAKAMKVDAQRGAFVSQVLPNSSAAKAGIKAGDVITSLNGKPISSFAALRAQVGTMPVGSKLTLGLLRDGKQVNVNLELQQSSQNQVDSSSIFNGIEGAEMSNKGKDQGVVVNNVKTGTPAAQIGLKKGDVIIGANQQAVKNIAELRKVLDSKPSVLALNIQRGDSTIYLLMQ
notes: periplasmic protease DegP (HtrA family) of E. coli, active-site mutant S210A; In the crystals it resembles the dodecameric cage of 3OTP (two trimers in the asymmetric unit); also called DegP active-site mutant

The target of data set [1] is T1, DegP^S210A (Escherichia coli, UniProt P0C0V0, S236A).
T1 construct: pET22b-degP(full length; S210A)_6His; 6His (C); made in house
Description: Isothermal titration calorimetry. Format: binding. The settings on record: ITC; for Kd: Kd (M); for binding stoichiometry N: 298 K, single binding site model, DMB_CYYKI 0–2 molar ratio. On the procedure: ITC experiments were performed using Affinity ITC instruments (TA Instruments, New Castle, DE, USA) at 298 K. DegP^S210A mutant (18.10 μM for 0–2 molar ratio and 109.33 μM for 0–0.4 molar ratio), which were prepared in a buffer containing 5 mM phosphate (pH 8.0) were degassed at 295 K prior to measurements. Using a micro-syringe, 2.5 μL of DMB_CYYKI (300 μM) was added at intervals of 200 s to the DegP solution in the cell with gentle stirring. As for other ligands, 2.5 μL of MMB_CYYKI (453 μM), TMB_CYYKI (218.46 μM) or 18–58 substrate peptide (80 μM) was added at intervals of 200 s to the DegP solution (27.33 μM, 37.45 μM, and 20 μM, respectively). Data were fitted to the single binding site model. In experiments with 0–2 and 0–2.6 molar ratio of DMB_CYYKI and MMB_CYYKI, respectively, the data with 0–0.3 molar ratio were excluded for the fitting.

Data set [2] deals with T2, DegP^S210A (Escherichia coli, UniProt P0C0V0, C83S/C95S/N322C/S236A).
T2 construct: pET22b-degP(full length; C57S/C69S/N296C/S210A)_6His; 6His (C); made in house; host or cells: E. coli (inferred from the pET plasmid)
The experiment in a line: FRET assay of DegP cage assembly. It counts as biochemical. As for the experimental part: Fluorescence resonance energy transfer (FRET) assay was performed as previously described[14],[22]. Equimolar amounts of fluorescence donor- and acceptor-labeled DegP^S210A (total 0.1, 1 or 3 μM) was mixed in a buffer containing 50 mM sodium phosphate (pH 8) and 100 mM NaCl. Two-fold serial dilutions of activators were added to the DegP mixtures. Alexa Fluor 555 C2-maleinide and 647 C2-maleinide (life technologies) were used as fluorescence dyes. Cage assembly of DegP was monitored by increased FRET ratio using the micro-plate reader (excitation 520 nm, emission 570 or 670 nm, Infinite M200pro, Tecan). Assays were performed in triplicates.

A further data set has as its system E. coli imp4213. The experiment in a line: microbe, parasite or virus in culture. It counts as cell-based, Escherichia coli. As for the experimental part:
The susceptibility of E. coli to activators was analyzed by determining the MICs. Two-fold serial dilutions of activators in LB broth were added to bacteria (OD600 = 0.1) in 96-well plates. Plates were incubated with shaking at 30 or 42 °C. After 12 h of incubation, the MIC was defined as the lowest concentration of the activator to inhibit the growth of bacteria by using a micro-plate reader (Absorbance 600 nm, Infinite M200pro, Tecan). The assay was performed in triplicates.

The subject of the next data set is E.coli imp4213 strain. It counts as cell-based, Escherichia coli. The settings on record: 20 µg/ml alone; 12 h. On the procedure: Time-kill experiment was performed by counting the viable bacteria at each time point. The E.coli imp4213 strain was cultured with streptomycin overnight and diluted 1:100 in fresh LB broth. When the OD600 value became 0.01, the activator was added at 2x MIC. The sample was incubated with shaking (180 rpm) at 30 °C or 42 °C, and aliquots were taken after 0, 1, 2, 4, 6, 8, 10, or 12 h. These aliquots were serially diluted (ten-fold) and plated on LB agar plates for colony counts. Experiments were performed in triplicates. The kill curves were plotted with the CFU/mL against time.
Experiments with cells in the stationary phase, however, were performed without dilution of the overnight culture.

Data set [3] addresses T3, DegP^S210A (E. coli, UniProt P0C0V0 27-474, S210A).
T3 sequence: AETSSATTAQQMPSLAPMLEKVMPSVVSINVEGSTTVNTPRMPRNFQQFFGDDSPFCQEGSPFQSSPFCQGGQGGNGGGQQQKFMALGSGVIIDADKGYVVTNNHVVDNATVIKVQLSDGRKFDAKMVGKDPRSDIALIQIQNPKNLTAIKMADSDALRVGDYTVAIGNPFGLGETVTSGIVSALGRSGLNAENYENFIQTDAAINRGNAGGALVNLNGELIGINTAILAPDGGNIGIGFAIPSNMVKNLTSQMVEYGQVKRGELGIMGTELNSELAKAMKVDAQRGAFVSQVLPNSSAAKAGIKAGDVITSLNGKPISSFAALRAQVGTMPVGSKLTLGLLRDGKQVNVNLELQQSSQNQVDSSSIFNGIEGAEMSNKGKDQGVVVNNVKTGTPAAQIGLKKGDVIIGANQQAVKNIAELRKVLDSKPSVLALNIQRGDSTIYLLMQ
The experiment in a line: ITC. On the technique in general: In ITC the heat of successive injections is recorded.

The next data set concerns the target DegP^S210A (E. coli) (UniProt P0C0V0). Description: ITC; 298 K, 5 mM phosphate pH 8.0; compound or peptide injected into DegP^S210A in the cell; single binding site model; for DMB_CYYKI (0–2 molar ratio) and MMB_CYYKI (0–2.6) the data at 0–0.3 molar ratio were excluded from the fit.
Another data set has as its target T4, DegP^WT (E. coli) (UniProt P0C0V0).
T4 sequence: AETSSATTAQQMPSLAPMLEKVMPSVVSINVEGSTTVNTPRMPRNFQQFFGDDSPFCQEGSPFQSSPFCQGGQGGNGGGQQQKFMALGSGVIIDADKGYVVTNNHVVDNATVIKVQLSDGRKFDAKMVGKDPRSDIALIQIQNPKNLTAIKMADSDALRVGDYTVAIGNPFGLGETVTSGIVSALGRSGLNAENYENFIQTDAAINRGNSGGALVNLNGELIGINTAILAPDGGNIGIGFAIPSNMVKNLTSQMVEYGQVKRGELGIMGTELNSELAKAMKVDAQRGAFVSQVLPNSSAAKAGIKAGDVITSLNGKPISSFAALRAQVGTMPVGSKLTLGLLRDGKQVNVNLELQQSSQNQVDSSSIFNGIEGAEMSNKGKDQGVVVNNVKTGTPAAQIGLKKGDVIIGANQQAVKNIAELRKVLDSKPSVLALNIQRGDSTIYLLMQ

Data set [4] concerns the molecule itself. The experiment in a line: crystal structure; DegP^S210A (198 µM) incubated with TMB_CYYKI (297 µM) in 5 mM phosphate pH 8.0 for 1 h at 295 K; hanging drop, PEG3350 10%, tacsimate 0.1 M pH 3.4; molecular replacement with 3OTP.
Data set [5] addresses B3. The experiment in a line: ITC; 298 K, 5 mM phosphate pH 8.0; compound or peptide injected into DegP^S210A in the cell; single binding site model; for DMB_CYYKI (0–2 molar ratio) and MMB_CYYKI (0–2.6) the data at 0–0.3 molar ratio were excluded from the fit. The following applies: both partners purified.
[6] abbreviates: model Independent, DMB_CYYKI 0-2 molar ratio.

*1 amine or outer side, *2 acyl side, *3 side chain or, on linkers, in order; H or OH if unused. Where a SMILES comes first, the peptide text is derived from it. Bridges are numbered along the chain shown (N, C = ends). Roman numbers before positions name the chains, in order. Where no end group is shown, it is not given here. The star is where a group is joined. TBMB = c1c(C[*:1])cc(C[*:3])cc1C[*:2]; mXylylene = c1cc(C[*:1])cc(C[*:2])c1; Bn = c1ccc(C*)cc1

T2 sequence (P0C0V0 27-474 C83S/C95S/S236A/N322C): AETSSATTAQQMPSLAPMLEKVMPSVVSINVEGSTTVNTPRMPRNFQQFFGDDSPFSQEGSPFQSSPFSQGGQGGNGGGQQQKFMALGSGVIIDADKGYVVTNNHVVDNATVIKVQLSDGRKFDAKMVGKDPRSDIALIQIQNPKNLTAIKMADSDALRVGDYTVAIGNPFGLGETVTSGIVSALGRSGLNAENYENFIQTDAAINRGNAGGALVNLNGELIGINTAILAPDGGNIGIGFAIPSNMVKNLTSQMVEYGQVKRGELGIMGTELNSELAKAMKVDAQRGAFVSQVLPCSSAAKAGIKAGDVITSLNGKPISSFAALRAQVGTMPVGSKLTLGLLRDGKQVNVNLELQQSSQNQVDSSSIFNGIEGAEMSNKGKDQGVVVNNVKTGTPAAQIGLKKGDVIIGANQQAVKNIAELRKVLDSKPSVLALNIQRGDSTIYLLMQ

Usually Kd stands for the free concentration of one partner at which half of the binding sites on the other are occupied at equilibrium, for simple one-to-one binding. By EC50 is commonly meant the concentration that produces a half-maximal response. The low end stands for a more potent agent, the high end for a less potent agent. Take `CC[C@H](C)[C@H](NC(=O)[C@H](CCCCN)NC(=O)[C@H](Cc1ccc(O)cc1)NC(=O)[C@H](Cc1ccc(O)cc1)NC(=O)[C@@H](N)CSCc1cc(CSC[C@H](N)C(=O)N[C@@H](Cc2ccc(O)cc2)C(=O)N[C@@H](Cc2ccc(O)cc2)C(=O)N[C@@H](CCCCN)C(=O)N[C@H](C(=O)O)[C@@H](C)CC)cc(CSC[C@H](N)C(=O)N[C@@H](Cc2ccc(O)cc2)C(=O)N[C@@H](Cc2ccc(O)cc2)C(=O)N[C@@H](CCCCN)C(=O)N[C@H](C(=O)O)[C@@H](C)CC)c1)C(=O)O` [TMB_CYYKI] (I: H-CYYKI-OH / II: H-CYYKI-OH / III: H-CYYKI-OH; linker I:1-II:1-III:1 via TBMB): the Kd at DegP^S210A [1] (setting [6]) amounted to 2.35e-07 M. Further, the concentration giving a half-maximal response (EC50) on DegP^S210A [2] amounted to 1700 nM. Also, the MIC with E. coli imp4213 (imp4213, Fig. 3a and Supplementary Fig. 6b (30 °C and 42 °C), 12 h, LB) is reported as 80 µM.
For `O=C(N[C@H](CO)[C@H](O)c1ccc([N+](=O)[O-])cc1)C(Cl)Cl` [chloramphenicol, reference compound], in the data set on E.coli imp4213 strain, the “number of viable cells” value is recorded as “roughly at the same level”. The MIC in the data set on E. coli imp4213 (Escherichia coli, IMP4213) turned out to be 2 µg/mL.
As for `CO[C@H]1/C=C/O[C@@]2(C)Oc3c(C)c(O)c4c(O)c(c(/C=N/N5CCN(C)CC5)c(O)c4c3C2=O)NC(=O)/C(C)=C\C=C\[C@H](C)[C@H](O)[C@@H](C)[C@@H](O)[C@@H](C)[C@H](OC(C)=O)[C@@H]1C` [rifampicin, reference compound], the MIC with E. coli imp4213 (Escherichia coli, IMP4213) was determined as 0.008 µg/mL.
Turning to `CC[C@H](C)[C@H](NC(=O)[C@H](CCCCN)NC(=O)[C@H](Cc1ccc(O)cc1)NC(=O)[C@H](Cc1ccc(O)cc1)NC(=O)[C@@H](N)CSCc1ccccc1)C(=O)O` [MMB_CYYKI] (H-C(Bn)YYKI-OH), the Kd on DegP^S210A [1] (setting [6]) was 6.32e-07 M. This molecule returned a 50% effective concentration (EC50) at DegP^S210A [2] of 6800 nM.
As for “DNYRGYSLGNWVSAAKFESNFNTQATNRNTDGSTDYGILQI [18–58, reference compound]”, the “binding stoichiometry N” value on DegP^S210A [1] was determined as 0.47; on DegP^S210A [1] (listed as 18-58) it was 0.473. The “ΔH” value on DegP^S210A [1] (setting [6]) is -4.4 kcal/mol.
Regarding `CC[C@H](C)[C@H](NC(=O)[C@H](CCCCN)NC(=O)[C@H](Cc1ccc(O)cc1)NC(=O)[C@H](Cc1ccc(O)cc1)NC(=O)[C@@H](N)CSCc1cccc(CSC[C@H](N)C(=O)N[C@@H](Cc2ccc(O)cc2)C(=O)N[C@@H](Cc2ccc(O)cc2)C(=O)N[C@@H](CCCCN)C(=O)N[C@H](C(=O)O)[C@@H](C)CC)c1)C(=O)O` [DMB_CYYKI] (I: H-CYYKI-OH / II: H-CYYKI-OH; linker I:1-II:1 via mXylylene), the Kd at DegP^S210A [1] (model Independent, 0-0.4 molar ratio) amounted to 4.62e-07 M; on DegP^S210A [1] (setting [6]) it was 2.39e-07 M. Further, the response on DegP^S210A [2] was half-maximal at 1100 nM (EC50).
On to `CN(C)[C@@H]1C(O)=C(C(N)=O)C(=O)[C@@]2(O)C(O)=C3C(=O)c4c(O)cccc4[C@@](C)(O)[C@H]3C[C@@H]12` [tetracycline, reference compound], for which, in the data set with E. coli imp4213 (Escherichia coli, IMP4213), the MIC was 1 µg/mL.

B1: 18–58 substrate peptide (peptide)
chain: GTGDNYRGYSLGNWVSAAKFESNFNTQATNRNTDGSTDYGILQI
As usually defined, the stoichiometry N is a count of units in the complex or per binding partner. In the data set with DegP^S210A [3], B1 showed a Kd of 100 nM. The stoichiometry N with DegP^S210A (E. coli) stood at 0.47.

B2: TMB_CKYRKL (peptide)
peptide: CKYRKL
modifications: also: three arms joined via TMB (trimer), linker at 1 via TMB, other end not in the chain
Turning to B2, the concentration of compound at maximal activation of reporter peptide (100 µM) cleavage by DegP; activation followed by inhibition at higher concentrations with DegP^WT (E. coli) was 100 µM.
As for B3, the binding result in data set [4] was “binds”.

B4: MMB_CYYKI (peptide)
peptide: CYYKI
modifications: not fully specified (residue 1); printed as MMB_CYYKI
notes: also called compound with one CYYKI arm; one-arm compound; source: synthetic peptide (SPPS), reacted with benzyl bromide
Take B4: in the data set with DegP^S210A [5], the “stoichiometry N” value was determined as 1.11. The molecule further showed a Kd in the data set with DegP^S210A [3] of 630 nM.
